Patent publication US20240398773A1, “COMPOSITIONS COMPRISING OTESECONAZOLE” (Mycovia Pharmaceuticals, Inc., priority 2021, published 2024)

System: Candida species
Assay: Phase 2a dose-ranging study in moderate-to-severe acute VVC, effective therapeutic cure
Format: in vivo, human
Conditions: comparator arm, single dose of fluconazole 150 mg; Per Protocol population
Procedure: Oteseconazole has previously been evaluated in a Phase 2a multi-center, randomized, double-blind, active-controlled, parallel-group, dose-ranging study in patients with moderate-to-severe acute VVC. A total of 55 subjects with moderate-to-severe acute VVC (severity score ≥6 and a positive fungal KOH test) participated in the study across 4 dose groups: 1) oteseconazole 300 mg qd for 3 days: 2) 600 mg qd for 3 days: 3) 600 mg bid for 3 days; or 4) a single dose of fluconazole 150 mg followed by matching placebo. […] No safety signals of clinical concern were observed from the safety assessments.
The efficacy of oteseconazole in the treatment of moderate-to-severe acute VVC was evaluated at the TOC visit in the Per Protocol population at the Day 28 test of cure (TOC) visit was, 87%, 86%, 86%, and 75% of subjects receiving the low, mid-, or high-dose oteseconazole or comparator arm of fluconazole, respectively, achieved an effective therapeutic cure (defined as having a total clinical signs and symptoms severity score of ≤1 and a negative culture for Candida species) in the Per Protocol population

OC(Cn1cncn1)(Cn1cncn1)c1ccc(F)cc1F [fluconazole, reference compound]
subjects achieving effective therapeutic cure at Day 28 TOC visit: 75%
